The NIST ThermoML archive (doi:10.1021/acs.jced.7b00106)

Details: Hot wire method

FC(F)(F)/C=C/Cl [(E)-1-chloro-3,3,3-trifluoroprop-1-ene]
Details	thermal conductivity [W/m/K]
313.49 K, 134 kPa, Gas	0.01209
313.66 K, 195 kPa, Gas	0.01193
313.74 K, 96 kPa, Gas	0.01156
313.74 K, 97 kPa, Gas	0.01206
313.81 K, 164 kPa, Gas	0.01205
314.19 K, 96 kPa, Gas	0.0121
314.29 K, 165 kPa, Gas	0.01203
314.47 K, 132 kPa, Gas	0.01204
314.68 K, 96 kPa, Gas	0.01213
314.8 K, 166 kPa, Gas	0.01203
315 K, 133 kPa, Gas	0.01215
315.2 K, 96 kPa, Gas	0.01218
315.34 K, 166 kPa, Gas	0.01208
315.56 K, 132 kPa, Gas	0.01212
315.75 K, 96 kPa, Gas	0.01223
316.33 K, 96 kPa, Gas	0.01227
321.04 K, 25085 kPa, Liquid	0.08832
321.04 K, 34321 kPa, Liquid	0.09144
321.04 K, 34326 kPa, Liquid	0.09107
321.05 K, 43820 kPa, Liquid	0.0947
321.1 K, 25070 kPa, Liquid	0.08802
321.1 K, 34323 kPa, Liquid	0.09161
321.12 K, 34308 kPa, Liquid	0.0914
321.12 K, 43822 kPa, Liquid	0.09482
321.33 K, 16965 kPa, Liquid	0.08442
321.34 K, 9798 kPa, Liquid	0.08117
321.36 K, 5192 kPa, Liquid	0.07831
321.4 K, 197 kPa, Gas	0.0125
321.4 K, 16967 kPa, Liquid	0.08432
321.41 K, 254 kPa, Gas	0.01268
321.41 K, 460 kPa, Liquid	0.07538
321.42 K, 66597 kPa, Liquid	0.1039
321.43 K, 56114 kPa, Liquid	0.09911
321.44 K, 5187 kPa, Liquid	0.07816
321.44 K, 66587 kPa, Liquid	0.1042
321.45 K, 34301 kPa, Liquid	0.09197
321.46 K, 43814 kPa, Liquid	0.09486
321.47 K, 25082 kPa, Liquid	0.08816
321.47 K, 34329 kPa, Liquid	0.09187
321.47 K, 43832 kPa, Liquid	0.09487
321.48 K, 458 kPa, Liquid	0.07551
321.51 K, 66615 kPa, Liquid	0.1035
321.52 K, 56121 kPa, Liquid	0.0993
321.52 K, 66605 kPa, Liquid	0.1041
321.55 K, 34296 kPa, Liquid	0.09167
321.55 K, 43839 kPa, Liquid	0.09474
321.56 K, 25086 kPa, Liquid	0.08833
321.56 K, 34311 kPa, Liquid	0.09191
321.63 K, 145 kPa, Gas	0.01268
321.7 K, 256 kPa, Gas	0.01247
321.72 K, 196 kPa, Gas	0.01245
321.77 K, 98 kPa, Gas	0.01281
321.78 K, 16953 kPa, Liquid	0.08463
321.81 K, 9811 kPa, Liquid	0.08084
321.85 K, 5178 kPa, Liquid	0.07845
321.86 K, 66588 kPa, Liquid	0.1041
321.88 K, 56118 kPa, Liquid	0.1004
321.89 K, 16957 kPa, Liquid	0.0846
321.91 K, 466 kPa, Liquid	0.07595
321.91 K, 9793 kPa, Liquid	0.08062
321.92 K, 43825 kPa, Liquid	0.09584
321.94 K, 145 kPa, Gas	0.01263
321.94 K, 34296 kPa, Liquid	0.09207
321.94 K, 43828 kPa, Liquid	0.09571
321.96 K, 5173 kPa, Liquid	0.07856
321.96 K, 34304 kPa, Liquid	0.09237
321.97 K, 142 kPa, Gas	0.01247
321.97 K, 25089 kPa, Liquid	0.0883
321.97 K, 66599 kPa, Liquid	0.1033
321.99 K, 66600 kPa, Liquid	0.1033
322 K, 56120 kPa, Liquid	0.09953
322.01 K, 257 kPa, Gas	0.01246
322.01 K, 259 kPa, Gas	0.01279
322.01 K, 462 kPa, Liquid	0.07568
322.04 K, 43829 kPa, Liquid	0.09557
322.05 K, 99 kPa, Gas	0.01242
322.05 K, 194 kPa, Gas	0.01256
322.06 K, 34292 kPa, Liquid	0.09256
322.06 K, 43826 kPa, Liquid	0.09519
322.07 K, 189 kPa, Gas	0.01239
322.08 K, 34300 kPa, Liquid	0.09194
322.09 K, 98 kPa, Gas	0.01259
322.09 K, 25078 kPa, Liquid	0.08798
322.22 K, 122 kPa, Gas	0.0128
322.23 K, 142 kPa, Gas	0.01241
322.25 K, 164 kPa, Gas	0.01289
322.27 K, 260 kPa, Gas	0.0128
322.29 K, 144 kPa, Gas	0.01276
322.3 K, 16963 kPa, Liquid	0.08446
322.32 K, 188 kPa, Gas	0.01244
322.33 K, 99 kPa, Gas	0.01222
322.34 K, 258 kPa, Gas	0.0126
322.36 K, 9801 kPa, Liquid	0.08109
322.36 K, 66579 kPa, Liquid	0.1031
322.38 K, 66598 kPa, Liquid	0.1031
322.39 K, 193 kPa, Gas	0.01261
322.4 K, 5186 kPa, Liquid	0.07821
322.4 K, 56115 kPa, Liquid	0.09929
322.44 K, 98 kPa, Gas	0.01281
322.44 K, 16945 kPa, Liquid	0.08465
322.46 K, 43829 kPa, Liquid	0.09512
322.47 K, 43824 kPa, Liquid	0.09516
322.49 K, 450 kPa, Liquid	0.07575
322.49 K, 9815 kPa, Liquid	0.081
322.49 K, 34282 kPa, Liquid	0.09204
322.5 K, 66578 kPa, Liquid	0.1033
322.51 K, 34308 kPa, Liquid	0.0922
322.51 K, 66603 kPa, Liquid	0.1032
322.52 K, 141 kPa, Gas	0.01234
322.54 K, 260 kPa, Gas	0.01283
322.54 K, 5172 kPa, Liquid	0.07803
322.54 K, 25075 kPa, Liquid	0.08816
322.55 K, 123 kPa, Gas	0.01279
322.56 K, 164 kPa, Gas	0.0126
322.61 K, 99 kPa, Gas	0.01223
322.63 K, 187 kPa, Gas	0.01233
322.63 K, 440 kPa, Liquid	0.0752
322.63 K, 43821 kPa, Liquid	0.09452
322.64 K, 143 kPa, Gas	0.0128
322.64 K, 34270 kPa, Liquid	0.09178
322.66 K, 34302 kPa, Liquid	0.09186
322.71 K, 25078 kPa, Liquid	0.08769
322.72 K, 259 kPa, Gas	0.01251
322.78 K, 192 kPa, Gas	0.01262
322.81 K, 141 kPa, Gas	0.01231
322.82 K, 99 kPa, Gas	0.01285
322.82 K, 260 kPa, Gas	0.01282
322.83 K, 123 kPa, Gas	0.01245
322.89 K, 123 kPa, Gas	0.01281
322.89 K, 164 kPa, Gas	0.01245
322.9 K, 164 kPa, Gas	0.01257
322.9 K, 16956 kPa, Liquid	0.08425
322.91 K, 99 kPa, Gas	0.0122
322.91 K, 66592 kPa, Liquid	0.1026
322.92 K, 186 kPa, Gas	0.0124
322.92 K, 66618 kPa, Liquid	0.1032
322.96 K, 56154 kPa, Liquid	0.09964
322.97 K, 9802 kPa, Liquid	0.08079
323.03 K, 143 kPa, Gas	0.01271
323.05 K, 5181 kPa, Liquid	0.07837
323.06 K, 43815 kPa, Liquid	0.09535
323.07 K, 16973 kPa, Liquid	0.08427
323.07 K, 43817 kPa, Liquid	0.09505
323.08 K, 66614 kPa, Liquid	0.1032
323.1 K, 259 kPa, Gas	0.01262
